Laboratory results from patent publication US8461186B2, “Use of N-piperidine derivatives for the treatment of neurodegenerative pathologies” (Medestea Research & Production S.p.A., priority 2004, dated 2013).

System: lipid peroxidation in the heart tissue
Experiment: Malondialdehyde (MDA) in the heart tissue in myocardial ischaemia and reperfusion
Type: in vivo, rat
Conditions: I/R rats, 10 mg/kg bolus then 2 mg/kg/h; p<0.01 (FIG. 2)
Description: […]. Enzymol. 52, 302-310, 1978.
The following test groups were considered: a) LAD occlusion (25 minutes) and reperfusion (2 hours) plus administration of the vehicle (saline solution, 3 ml/kg-v-bolus plus 1.8 ml/kg/h) starting 5 minutes after reperfusion and maintained during the reperfusion period; b) LAD occlusion and reperfusion plus administration of MP1002 or MP1001 (10 mg/kg injection in bolus) 5 minutes prior to reperfusion, followed by infusion of 2 mg/kg/h during the reperfusion period; c) sham operation (no LAD occlusion) and infusion of the vehicle; d) sham operation and infusion of MP1002 or MP1001 as described above.
The malondialdehyde (MDA) in the heart tissue as final peroxidation product of the cell membrane lipids was also determined as described above.

Structure (SMILES) | development of lipid peroxidation in heart tissue (MDA)
CC1(C)CC(OC(=O)CCCCCCCCC(=O)OC2CC(C)(C)N(O)C(C)(C)C2)CC(C)(C)N1O [MP1001, BIS(1-HYDROXYL-2,2,6,6-TETRAMETHYL-4-PIPERIDINYL)DECANDIOATE] | reduced the development of peroxidation to levels similar to those of the animals that were subjected to sham operations
CC1(C)CC(OC(=O)CCCCCCCCC(=O)OC2CC(C)(C)N(O)C(C)(C)C2)CC(C)(C)N1O [MP1002, bis(1-oxyl-2,2,6,6-tetramethyl-4-piperidinyl)decandioate] | reduced the development of peroxidation to levels similar to those of the animals that were subjected to sham operations
